Biological target: 5-hydroxytryptamine receptor 2A (Homo sapiens) (UniProt P28223)
Assay: Agonist activity at 5-HT2A (unknown origin) expressed in HEK293 cells assessed as increase in calcium influx by measuring maximal efficacy incubated for 50 mins by Fluo-4 dye based FLIPR assay relative to control
Assay type: functional, cell-based
Conditions: filed as agonist

Chain of 5-hydroxytryptamine receptor 2A (Homo sapiens) (P28223 whole entry): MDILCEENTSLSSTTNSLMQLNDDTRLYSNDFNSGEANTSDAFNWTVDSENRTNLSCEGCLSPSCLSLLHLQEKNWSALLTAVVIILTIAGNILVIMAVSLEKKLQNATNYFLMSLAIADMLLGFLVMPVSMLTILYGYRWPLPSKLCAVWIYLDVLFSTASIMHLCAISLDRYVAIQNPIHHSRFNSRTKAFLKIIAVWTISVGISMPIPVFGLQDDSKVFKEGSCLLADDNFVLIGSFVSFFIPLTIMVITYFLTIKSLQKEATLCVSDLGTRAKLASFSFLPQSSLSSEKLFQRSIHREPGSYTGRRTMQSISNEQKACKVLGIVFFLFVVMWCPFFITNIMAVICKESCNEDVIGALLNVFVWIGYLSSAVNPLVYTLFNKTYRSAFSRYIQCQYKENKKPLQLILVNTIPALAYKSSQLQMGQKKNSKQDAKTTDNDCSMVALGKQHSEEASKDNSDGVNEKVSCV

| SMILES | Emax [%] |
| --- | --- |
| CC(C)N(C)CCc1cccc2cccc(O)c12 | 79 |
| CCN(C)CCc1cccc2ccc(OC)cc12 | 63 |
| COc1cccc(CNCCc2cccc3ccc(OC)cc23)c1 | 84 |
| CCN(C)CCc1cccc2cccc(O)c12 | 68 |
| COc1ccc2cccc(CCN(C)C)c2c1 | 79 |
| CN(CCc1cccc2cccc(O)c12)C1CC1 | 64 |
| CN(C)CCc1cccc2cccc(O)c12 | 73 |

— ChEMBL document CHEMBL5608248, “Exploring the Therapeutic Potential of Entheogens in Postoperative Cognitive Decline and Psychological Resilience” (ACS Med Chem Lett, 2024)
